Measurements: patent US20260053902A1, “COMPOSITIONS AND METHODS FOR REDUCING THE RATE OF TYPE 1 DIABETES” (Wisconsin Alumni Research Foundation, priority 2023, published 2026)
Ends that are not written are not given here. * marks the point of attachment. Cam = NC(=O)C*

Test system: NOD mouse
Assay: Rate of type 1 diabetes and final blood glucose in treated female NOD/ShiLtJ mice
Format: in vivo
Method: Mouse care: NOD/ShiLtJ mice were from The Jackson Laboratory (Bar Harbor, ME, USA). Mice were housed under standard conditions (20-24° C., humidity 30-70%, lighting regimen 12 h light/12 h dark) in the University of Wisconsin Biomedical Research Model Service that is a specific pathogen free level 1 facility. […] Mice had access to acidified water or water containing a chemical and/or green tea ad libitum. All procedures were approved by the Research Animal Resources and Compliance veterinary care authority of the University of Wisconsin, Madison.
Mouse treatments: Mice were given chemicals by intraperitoneal injection and/or by gavage and/or in drinking water. Water-soluble chemicals were administered in a solution of sodium chloride adjusted to have a final osmolality of 0.5-0.9%. Lipid soluble chemicals were dissolved in olive oil, peanut oil, corn oil, Mazola® oil or canola oil.
Starting at age 2 to 5 days mice were given injections on every third or fourth day for 2 to 4 weeks (usually 2 to 2.5 weeks) for the first 4 or 6 injections, and thereafter twice per week on Mondays and Thursdays until up to age 100 days. In some instances, pregnant and nursing mice were given chemicals in drinking water starting at about the middle or late pregnancy continuing during nursing and also continuing for various lengths of time to the offspring with or without additional intraperitoneal injections of chemicals. In other instances, chemicals were delivered by intraperitoneal injection into pregnant mice and continued after delivery into the mouse pups. Chemicals, for example EGCG, were also delivered in drinking water starting before birth to the pregnant mouse mother and/or continuing and/or starting ad libitum to the mice after birth usually until at least 100 days of age or throughout life.
Chemicals given in distilled drinking water were green tea (as a source of EGCG and other catechins) (Lipton® 100% Natural Green Tea). […] The tea water was given alone and also in combination with acetaminophen 2 g/l in the same water.
In most cases nondiabetic mice were euthanized at 40-41 weeks of age. Statistical significances of the frequencies of diabetes in the mice receiving test treatments were compared to the rates of diabetes in mice receiving control treatments and were calculated with the Chi square test and with the Chi square test with Yate's correction.
In most of the studies, control solutions and the other treatments were administered to the mice until they were 100 days old. Mice without diabetes were euthanized at 40-41 weeks of age. Diabetic mice were euthanized when their blood glucose levels reached a level that met the criteria for diabetes.
Administration of water-soluble chemicals serving as controls to NOD mice: Control solutions were the vehicles in which chemicals were dissolved. Control solutions were usually administered to mouse litters from the same shipments as the litters receiving test chemicals and/or litters from the same parents as the litters receiving test chemicals and were administered during the same month and year as treatments to the litters receiving test treatments. Statistical probabilities between the rates of diabetes in the litters receiving test treatments were compared to litters simultaneously receiving control treatments.

[1] = quercetin 200 μmol/kg IP in olive oil, age 40 weeks
[2] = quercetin 200 μmol/kg IP in peanut oil
[3] = 1500 μmol/kg in olive oil, IP til wean (21 days), then gavage until 98 days, age 40 weeks
[4] = 2000 μmol/kg IP in olive oil, age 40 weeks
[5] = 200 μmol/kg in ¾ saline, IP til wean (21 days), then gavage until 55-62 days, age 35 weeks
[6] = 200 μmol/kg IP in saline, age 40 weeks
[7] = 20 ug once per week for first 3 weeks, then 40 μg once per week until 100-110 days, IP in 5% DMSO/95% saline, age 40 weeks
[8] = 40 μg twice/week for two weeks then once per week until 14 weeks old, IP in 5% DMSO/95% saline
[9] = 20 ug, then 40 μg after 3 weeks, IP in 5% DMSO/95% saline

O=c1c(O)c(-c2ccc(O)c(O)c2)oc2cc(O)cc(O)c12 [Quercetin]
Diabetes (%) [1]: 26%
Final Blood Glucose (mean ± SE) diabetic [1]: 610 ± 56 mg glucose/dl
Final Blood Glucose (mean ± SE) non-diabetic [1]: 178 ± 7 mg glucose/dl
Diabetes (%) [2]: 47%
Final Blood Glucose (mean ± SE) diabetic [2]: 651 ± 25 mg glucose/dl
Final Blood Glucose (mean ± SE) non-diabetic [2]: 171 ± 11 mg glucose/dl

CC1=C(C=O)C(C)(C)CC=C1 [Safranal, 2,6,6-Trimethylcyclohexa-1,3-diene-1-carbaldehyde]
Diabetes (%) [3]: 36%
Final Blood Glucose (mean ± SE) diabetic [3]: 595 ± 36 mg glucose/dl
Final Blood Glucose (mean ± SE) non-diabetic [3]: 172 ± 8 mg glucose/dl
Diabetes (%) [4]: 32%
Final Blood Glucose (mean ± SE) diabetic [4]: 606 ± 60 mg glucose/dl
Final Blood Glucose (mean ± SE) non-diabetic [4]: 159 ± 5 mg glucose/dl

C[S+]([O-])CCCCN=C=S (stereo not drawn) [Sulforaphane, 1-Isothiocyanato-4-(methanesulfinyl)butane]
Diabetes (%) [5]: 42%
Final Blood Glucose (mean ± SE) diabetic [5]: 619 ± 37 mg glucose/dl
Final Blood Glucose (mean ± SE) non-diabetic [5]: 154 ± 7 mg glucose/dl

CC(S)C(=O)NCC(=O)O (stereo not drawn) [Tiopronin, reference compound]
Diabetes (%) [6]: 74%
Final Blood Glucose (mean ± SE) diabetic [6]: 685 ± 19 mg glucose/dl
Final Blood Glucose (mean ± SE) non-diabetic [6]: 175 ± 12 mg glucose/dl

SHLVEALYLVCGEEG (SHLVEALYLVC(Cam)GEEG) [Ins B9-23 19CAM22R-E, insulin B chain 9-23 mimotope peptide treated with iodoacetamide to carboxyamidomethylate the cysteine residue at position 19]
Diabetes (%) [7]: 17%
Final Blood Glucose (mean ± SE) diabetic [7]: 681 ± 82 mg glucose/dl
Final Blood Glucose (mean ± SE) non-diabetic [7]: 159 ± 6 mg glucose/dl

VEALYLVCEGEEG (VEALYLVC(Cam)EGEEG) [Ins B12-23 19CAM22R-E, insulin B12-23 mimotope peptide treated with iodoacetamide to carboxyamidomethylate the cysteine residue]
Diabetes (%) [8]: 54%
Final Blood Glucose (mean ± SE) diabetic [8]: 569 ± 70 mg glucose/dl
Final Blood Glucose (mean ± SE) non-diabetic [8]: 166 ± 7 mg glucose/dl

VEALYLVCGERG (VEALYLVC(Cam)GERG) [Ins B12-23 19CAM]
Diabetes (%) [9]: 47%
Final Blood Glucose (mean ± SE) diabetic [9]: 679 ± 32 mg glucose/dl
Final Blood Glucose (mean ± SE) non-diabetic [9]: 160 ± 6 mg glucose/dl
